Patent publication US5686486A, “4-hydroxy-benzopyran-2-ones and 4-hydroxy-cycloalkyl[b]pyran-2-ones useful to treat retroviral infections” (priority 1995, dated 1997)
“And” between values parts separate entries of the source, which are not always exact repeats. Equal values may be shown once. Where a name gives a salt, the structure may show the parent alone. Read-outs that look alike come from different tables or passages of the source.

Biological target: HIV-1 protease (Human immunodeficiency virus type 1 group M subtype B, UniProt P04585)
Assay: biochemical
Details: for inhibition at 20 µM: read-out: HIV-1 Protease % Inhib, dose 20.000 uM; for inhibition at 200 µM: read-out: HIV-1 Protease % Inhib, dose 200.000 uM; for IC50: HIV-1 Protease IC50
Method: The HIV protease screening assay is based on fluorescently labeled substrate which can be resolved from nonlabeled cleavage product using special beads coated with streptavidin. The substrate is biotinylated at the amino terminal arginine and fluorescently labeled with fluorescein isothiocynate (FITC) at the carboxyl terminal lysine. This assay has been employed to detect novel, nonpeptidic inhibitors of HIV-1 protease. Substrate (20 μl of 0.2 μM), sample (10 μl of desired concentration), and enzyme (10 μl of 0.1 μM) are added to a 96 well pandex plate. The assay is run in 0.1M sodium acetate buffer at pH 5.5 in the presence of 1.0M sodium chloride and 0.05% NP-40 with incubated in the dark for one hour at room temperature. Strepavidin coated polystyrene beads {40 μl of 0.1% (w/v)} are added and the plate is incubated in the dark for an additional half hour. The labeled cleavage product is separated from the unreacted substrate via filtration and is read on the Idexx screen machine. The data are analyzed by appropriate computer algorithms to ascertain percent inhibition values.

[1] = read-out: HIV-1 Protease % Inhib, dose 10.000 uM
[2] = read-out: HIV-1 Protease % Inhib, dose 100.000 uM
[3] = dose 1.000 uM, read-out: HIV-1 Protease % Inhib
[4] = dose 10.000 uM, read-out: HIV-1 Protease % Inhib
[5] = dose 100.000 uM, read-out: HIV-1 Protease % Inhib
[6] = read-out: HIV-1 Protease % Inhib, dose 1.000 uM

Compound: O=c1oc2ccccc2c(O)c1CCc1ccccc1 [Example 1, 4-Hydroxy-3-phenethylcoumarin]
- inhibition at 10 µM [1]: 15.3%
- inhibition at 20 µM: 51.6%
- inhibition at 100 µM [2]: 66.9%
- inhibition at 200 µM: 92.8%

Compound: O=c1oc2ccccc2c(O)c1CCCc1ccccc1 [Example 2, 4-Hydroxy-3-(3-phenylpropyl)coumarin]
- inhibition at 10 µM [1]: 15.6%
- inhibition at 20 µM: 48.1%
- inhibition at 100 µM [2]: 63.6%
- inhibition at 200 µM: 97.5%

Compound: O=c1oc2ccccc2c(O)c1Cc1ccc2ccccc2c1 [Example 3, 4-Hydroxy-3-(2-naphthylmethyl)coumarin]
- inhibition at 1 µM [3]: < 10%
- inhibition at 10 µM [4]: < 10%
- inhibition at 100 µM [5]: 48.8%

Compound: O=c1oc2ccccc2c(O)c1CC(c1ccccc1)c1ccccc1 [Example 4, 4-Hydroxy-3-(2,2-diphenylethyl)-coumarin]
- inhibition at 1 µM [6]: < 10%
- inhibition at 10 µM [1]: 12.4%
- inhibition at 100 µM [2]: 45.3%

Compound: CC(Cc1c(O)c2ccccc2oc1=O)c1ccccc1 (centres unmarked) [Example 5, 4-Hydroxy-3-(2-phenylpropyl)coumarin]
- inhibition at 1 µM [6]: 15.4%
- inhibition at 10 µM [1]: 55.4%
- inhibition at 100 µM [2]: 95%

Compound: CC(c1ccccc1)c1c(O)c2ccccc2oc1=O (stereo not drawn) [Example 6, 4-Hydroxy-3-(α-methylbenzyl)-coumarin]
- inhibition at 10 µM [1]: 29.2%
- inhibition at 20 µM: 65.6%
- inhibition at 100 µM [2]: 88.5%
- inhibition at 200 µM: 75.2%

Compound: O=c1oc2ccccc2c(O)c1C(c1ccccc1)c1ccccc1 [Example 7, 4-Hydroxy-3-diphenylmethylcoumarin]
- IC50: 21.2 µM
- inhibition at 1 µM [6]: < 10%
- inhibition at 10 µM [1]: 42.5%
- inhibition at 100 µM [2]: 96.3%

Compound: CC(O)CC(c1ccccc1)c1c(O)c2ccccc2oc1=O (centres unmarked) [Example 8, 4-Hydroxy-3-(3-hydroxy-1-phenylbutyl)-coumarin]
- IC50: 41.7 µM
- inhibition at 1 µM [6]: < 10%
- inhibition at 10 µM [1]: 23.7%
- inhibition at 100 µM [2]: 93.3%

Compound: CC(C)C(c1ccccc1)c1c(O)c2ccccc2oc1=O (centres unmarked) [Example 9, 4-Hydroxy-3-(2-methyl-1-phenylpropyl)-coumarin]
- IC50: 10.6 µM
- inhibition at 1 µM [6]: 12.1%
- inhibition at 10 µM [1]: 65%
- inhibition at 100 µM [2]: 98.3%

Compound: CC(C)C(c1ccc(Br)cc1)c1c(O)c2ccccc2oc1=O (centres unmarked) [Example 12, 3-(1-(4-Bromophenyl)-2-methylpropyl)-4-hydroxycoumarin]
- IC50: 12.1 µM
- inhibition at 0.098 µM (read-out: HIV-1 Protease % Inhib, dose 0.098 uM): < 10%
- inhibition at 0.196 µM (read-out: HIV-1 Protease % Inhib, dose 0.196 uM): < 10%
- inhibition at 0.39 µM (read-out: HIV-1 Protease % Inhib, dose 0.390 uM): < 10%
- inhibition at 0.78 µM (read-out: HIV-1 Protease % Inhib, dose 0.780 uM): 14%
- inhibition at 1.56 µM (read-out: HIV-1 Protease % Inhib, dose 1.560 uM): 17.1%
- inhibition at 3.13 µM (read-out: HIV-1 Protease % Inhib, dose 3.130 uM): 25.4%
- inhibition at 6.25 µM (read-out: HIV-1 Protease % Inhib, dose 6.250 uM): 31.9%
- inhibition at 12.5 µM (read-out: HIV-1 Protease % Inhib, dose 12.500 uM): 53.8%
- inhibition at 25 µM (read-out: HIV-1 Protease % Inhib, dose 25.000 uM): 66.5%
- inhibition at 50 µM (read-out: HIV-1 Protease % Inhib, dose 50.000 uM): 74.7%
- inhibition at 100 µM [2]: 87.4%
- inhibition at 200 µM: 87%

Compound: O=c1oc2ccccc2c(O)c1C(Cc1ccccc1)c1ccccc1 (centres unmarked) [Example 13, 3-(1,2-Diphenylethyl)4-hydroxycoumarin]
- inhibition at 1 µM [6]: < 10%
- inhibition at 10 µM [1]: 34.7%
- inhibition at 100 µM [2]: 74.6%

Compound: CC(C)CC(c1ccccc1)c1c(O)c2ccccc2oc1=O (centres unmarked) [Example 14, 4-Hydroxy-3-(3-methyl-1-phenylbutyl)-coumarin]
- inhibition at 1 µM [6]: 32.2%
- inhibition at 10 µM [1]: 64.6%
- inhibition at 100 µM [2]: 87.1%

Compound: O=c1oc2ccccc2c(O)c1C(c1ccccc1)C1CC1 (centres unmarked) [Example 15, 3-(Cyclopropylphenylmethyl)-4-hydroxycoumarin]
- IC50: 1.25 µM
- inhibition at 1 µM [6]: 43.8%
- inhibition at 10 µM [1]: 89.6%

Compound: O=c1oc2ccccc2c(O)c1C(CCc1ccccc1)c1ccccc1 (centres unmarked) [Example 16, 4-Hydroxy-3-(1,3-diphenylpropyl)-coumarin]
- inhibition at 1 µM [6]: < 10%
- inhibition at 10 µM [1]: 48.3%

Compound: O=c1oc2ccccc2c(O)c1C(CC1CCCCC1)c1ccccc1 (centres unmarked) [Example 17, 3-(2-Cyclohexyl-1-phenylethyl)-4-hydroxycoumarin]
- inhibition at 1 µM [6]: < 10%
- inhibition at 10 µM [1]: 27.6%

Compound: CCCC(c1ccc(C)cc1)c1c(O)c2ccccc2oc1=O (centres unmarked) [Example 18, 4-Hydroxy-3-(1-(4-methylphenyl)-butyl)-coumarin]
- inhibition at 1 µM [6]: 13.4%
- inhibition at 10 µM [1]: 52.5%

Compound: CCCC(c1ccc(CC)cc1)c1c(O)c2ccccc2oc1=O (centres unmarked) [Example 19, 3-(1-(4-Ethylphenyl)-butyl)-4-hydroxycoumarin]
- inhibition at 1 µM [6]: < 10%
- inhibition at 10 µM [1]: 36.8%

Compound: CCC(c1c(O)c2ccccc2oc1=O)c1cccc2ccccc12 (centres unmarked) [Example 20, 4-Hydroxy-3-(1-(1-naphthyl)-propyl)-coumarin]
- inhibition at 1 µM [6]: < 10%
- inhibition at 10 µM [1]: 20.3%
- inhibition at 100 µM [2]: 79.8%

Compound: O=c1oc2ccccc2c(O)c1C(=Cc1ccccc1)c1ccccc1 [Example 21, 3-(1,2-Diphenylethenyl)4-hydroxycoumarin]
- inhibition at 1 µM [3]: < 10%
- inhibition at 10 µM [4]: 12.1%
- inhibition at 100 µM [5]: 74.3%

Compound: CC(c1cccc(C(=O)NCC(=O)OC(C)(C)C)c1)c1c(O)c2ccccc2oc1=O (centres unmarked) [Example 22, 4-Hydroxy-3-[1-[3-[[[(1,1-dimethylethoxycarbonyl)methyl]amino]carbonyl]phenyl]ethyl]-coumarin]
- inhibition at 1 µM [6]: < 10%
- inhibition at 10 µM [1]: < 10%
- inhibition at 100 µM [2]: 58.7%

Compound: CCC(c1cccc(NC(=O)CCNC(=O)OC(C)(C)C)c1)c1c(O)c2ccccc2oc1=O (centres unmarked) [Example 23, 4-Hydroxy-3-[1-[3-[[3-[(1,1-dimethylethoxycarbonyl)amino]-1-oxopropyl]amino]phenyl]propyl]-coumarin]
- IC50: 0.66 µM and 0.7 µM
- HIV-1 Protease % Inhib (dose 100.000 uM): 104.2%
- inhibition at 1 µM [6]: 46.6%
- inhibition at 10 µM [1]: 96.6%
- inhibition at 100 µM [2]: 104%

Compound: CCC(c1cccc(NC(=O)CCN)c1)c1c(O)c2ccccc2oc1=O (centres unmarked) [Example 24, 3-[1-[3-[(3-Amino-1-oxopropyl)amino]phenyl]propyl]-4-hydroxy-coumarin, trifluoroacetate (salt)]
- inhibition at 1 µM [6]: < 10%
- inhibition at 10 µM [1]: 24.2%
- inhibition at 100 µM [2]: 83.7%

Compound: CCC(c1cccc(NC(=O)CCc2ccccc2)c1)c1c(O)c2ccccc2oc1=O (centres unmarked) [Example 25, 4-Hydroxy-3-[1-[3-[(1-oxo-3-phenylpropyl)amino]phenyl]propyl]-coumarin]
- IC50: 5.2 µM
- inhibition at 1 µM [6]: 11.4%
- inhibition at 10 µM [1]: 78.6%
- inhibition at 100 µM [2]: 115%

Compound: CC(c1cccc(C(=O)NCc2nc3ccccc3[nH]2)c1)c1c(O)c2ccccc2oc1=O (centres unmarked) [Example 26, Coumarin, 3-[1-[3-[[[(2-benzimidazo131)methyl]amino]carbonyl]phenyl]ethyl]-4-hydroxy]
- IC50: 20.3 µM
- HIV-1 Protease % Inhib (dose 100.000 uM): 80%
- inhibition at 1 µM [6]: < 10%
- inhibition at 10 µM [1]: 53.6%
- inhibition at 100 µM [2]: 95%

Compound: CC(c1cccc(C(=O)NCc2ccccn2)c1)c1c(O)c2ccccc2oc1=O (centres unmarked) [Example 27, Coumarin, 4-hydroxy-3-[1-[3-[[[(2-pyridinyl)methyl]amino]carbonyl]phenyl]ethyl]-]
- inhibition at 1 µM [6]: < 10%
- inhibition at 10 µM [1]: < 10%
- inhibition at 100 µM [2]: 72%

Compound: CC(c1cccc(C(=O)NCc2ccccc2)c1)c1c(O)c2ccccc2oc1=O (centres unmarked) [Example 28, Coumarin, 4-hydroxy-3-[1-[3-[[(phenylmethyl)amino]carbonyl]phenyl]ethyl]-]
- inhibition at 1 µM [6]: < 10%
- inhibition at 10 µM [1]: 17.9%
- inhibition at 100 µM [2]: 81%
